# Results from PubChem BioAssay (NCI).
#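 Assay format: 96-well plates, 48-hour exposure. Definition used: TGI = concentration required for complete inhibition of growth.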
# What was measured:
# Experiment in all cases: growth of human tumour cells (NCI), 48 h
# [1] = system: 786-0 renal
# [2] = system: A498 renal
# [3] = system: A549 NSCLC
# [4] = system: ACHN renal
# [5] = system: BT-549 breast
# [6] = system: CAKI-1 renal
# [7] = system: CCRF-CEM leukemia
# [8] = system: COLO 205 colon
# [9] = system: DLD-1 colon
# [10] = system: DMS 114 small cell lung
# [11] = system: DMS 273 small cell lung
# [12] = system: DU-145 prostate
# [13] = system: EKVX NSCLC
# [14] = system: HCC-2998 colon
# [15] = system: HCT-116 colon
# [16] = system: HCT-15 colon
# [17] = system: HL-60(TB) leukemia
# [18] = system: HOP-18 NSCLC
# [19] = system: HOP-62 NSCLC
# [20] = system: HT29 colon
# [21] = system: IGROV1 ovarian
# [22] = system: K-562 leukemia
# [23] = system: KM12 colon
# [24] = system: KM20L2 colon
# [25] = system: LOX IMVI melanoma
# [26] = system: LXFL 529 NSCLC
# [27] = system: M14 melanoma
# [28] = system: M19-MEL melanoma
# [29] = system: MALME-3M melanoma
# [30] = system: MCF7 breast
# [31] = system: MDA-MB-231 breast
# [32] = system: MDA-MB-435
# [33] = system: MDA-N
# [34] = system: MOLT-4 leukemia
# [35] = system: NCI-H226 lung
# [36] = system: NCI-H23 lung
# [37] = system: NCI-H460 lung
# [38] = system: NCI-H522 lung
# [39] = system: OVCAR-3 ovarian
# [40] = system: OVCAR-4 ovarian
# [41] = system: OVCAR-5 ovarian
# [42] = system: OVCAR-8 ovarian
# [43] = system: PC-3 prostate
# [44] = system: RPMI-8226 leukemia
# [45] = system: RXF 393 renal
# [46] = system: SF-268 CNS
# [47] = system: SF-295 CNS
# [48] = system: SF-539 CNS
# [49] = system: SK-MEL-2 melanoma
# [50] = system: SK-MEL-28 melanoma
# [51] = system: SK-MEL-5 melanoma
# [52] = system: SN12C renal
# [53] = system: SNB-19 CNS
# [54] = system: SNB-75 CNS
# [55] = system: SR leukemia
# [56] = system: SW-620 colon
# [57] = system: T-47D breast
# [58] = system: TK-10 renal
# [59] = system: U251 CNS
# [60] = system: UACC-257 melanoma
# [61] = system: UACC-62 melanoma
# [62] = system: UO-31 renal
# [63] = system: SNB-78 CNS
# [64] = system: XF 498 CNS
# [65] = system: SK-OV-3 ovarian
compound,measurement,setting,value
C=C1C(=O)O[C@@H]2C[C@@H](C)[C@@H]3C=CC(=O)[C@@]3(C)[C@@H](O)[C@H]12,TGI,[1],5.4 µM
same,TGI,[2],3.52 µM
same,TGI,[3],11.8 µM
same,TGI,[4],6.33 µM
same,TGI,[5],2.32 µM
same,TGI,[6],1.2 µM
same,TGI,[7],2.05 µM
same,TGI,[8],5.11 µM
same,TGI,[9],1.49 µM
same,TGI,[10],3.84 µM
same,TGI,[11],4.48 µM
same,TGI,[12],15.5 µM
same,TGI,[13],8.89 µM
same,TGI,[14],2.85 µM
same,TGI,[15],4.06 µM
same,TGI,[16],9.54 µM
same,TGI,[17],2.4 µM
same,TGI,[18],3.53 µM
same,TGI,[19],17.7 µM
same,TGI,[20],3.88 µM
same,TGI,[21],8.1 µM
same,TGI,[22],8.34 µM
same,TGI,[23],3.31 µM
same,TGI,[24],3.87 µM
same,TGI,[25],2.01 µM
same,TGI,[26],1.68 µM
same,TGI,[27],5.63 µM
same,TGI,[28],20.6 µM
same,TGI,[29],3.87 µM
same,TGI,[30],2.3 µM
same,TGI,[31],7.35 µM
same,TGI,[32],3.39 µM
same,TGI,[33],5.66 µM
same,TGI,[34],3.36 µM
same,TGI,[35],4.9 µM
same,TGI,[36],4.15 µM
same,TGI,[37],4.46 µM
same,TGI,[38],0.663 µM
same,TGI,[39],3.72 µM
same,TGI,[40],10.5 µM
same,TGI,[41],3.37 µM
same,TGI,[42],5.71 µM
same,TGI,[43],7.22 µM
same,TGI,[44],2.81 µM
same,TGI,[45],1.35 µM
same,TGI,[46],27.9 µM
same,TGI,[47],6.48 µM
same,TGI,[48],9.36 µM
same,TGI,[49],4.04 µM
same,TGI,[50],3.77 µM
same,TGI,[51],2.67 µM
same,TGI,[52],2.91 µM
same,TGI,[53],7.02 µM
same,TGI,[54],2.58 µM
same,TGI,[55],2.65 µM
same,TGI,[56],2.59 µM
same,TGI,[57],12.2 µM
same,TGI,[58],11.8 µM
same,TGI,[59],2.99 µM
same,TGI,[60],3.09 µM
same,TGI,[61],5.46 µM
same,TGI,[62],3.65 µM
BrC1=CCC23CC=C(Br)[C@H]4CC2(COC3)C[C@@H]1O4 (some centres undefined),TGI,[1],> 100 µM
same,TGI,[3],> 100 µM
same,TGI,[4],> 100 µM
same,TGI,[7],79.5 µM
same,TGI,[8],> 100 µM
same,TGI,[10],> 100 µM
same,TGI,[11],> 100 µM
same,TGI,[13],> 100 µM
same,TGI,[15],> 100 µM
same,TGI,[16],> 100 µM
same,TGI,[17],38.1 µM
same,TGI,[19],> 100 µM
same,TGI,[21],> 100 µM
same,TGI,[22],89 µM
same,TGI,[23],> 100 µM
same,TGI,[24],> 100 µM
same,TGI,[25],> 100 µM
same,TGI,[26],> 100 µM
same,TGI,[27],> 100 µM
same,TGI,[28],> 100 µM
same,TGI,[29],> 100 µM
same,TGI,[34],86 µM
same,TGI,[35],> 100 µM
same,TGI,[36],> 100 µM
same,TGI,[37],> 100 µM
same,TGI,[38],66.2 µM
same,TGI,[39],> 100 µM
same,TGI,[40],> 100 µM
same,TGI,[41],86.2 µM
same,TGI,[42],> 100 µM
same,TGI,[44],> 100 µM
same,TGI,[45],93.5 µM
same,TGI,[46],30.9 µM
same,TGI,[47],> 100 µM
same,TGI,[48],> 100 µM
same,TGI,[49],> 100 µM
same,TGI,[50],62.1 µM
same,TGI,[51],> 100 µM
same,TGI,[52],> 100 µM
same,TGI,[53],> 100 µM
same,TGI,[54],41.6 µM
same,TGI,[63],93.6 µM
same,TGI,[55],> 100 µM
same,TGI,[56],> 100 µM
same,TGI,[58],> 100 µM
same,TGI,[59],> 100 µM
same,TGI,[61],> 100 µM
same,TGI,[62],82.4 µM
same,TGI,[64],> 100 µM
CC1=C(c2ccccc2)C(c2ccccc2)=C(c2ccccc2)C2(c3ccccc3)C(=O)C(C)CN12 (centres undefined),TGI,[1],> 100 µM
same,TGI,[2],> 100 µM
same,TGI,[3],> 100 µM
same,TGI,[4],> 100 µM
same,TGI,[6],> 100 µM
same,TGI,[9],> 100 µM
same,TGI,[11],> 100 µM
same,TGI,[13],> 100 µM
same,TGI,[14],> 100 µM
same,TGI,[15],> 100 µM
same,TGI,[16],> 100 µM
same,TGI,[19],> 100 µM
same,TGI,[20],> 100 µM
same,TGI,[21],> 100 µM
same,TGI,[23],> 100 µM
same,TGI,[24],> 100 µM
same,TGI,[25],> 100 µM
same,TGI,[26],> 100 µM
same,TGI,[27],> 100 µM
same,TGI,[28],> 100 µM
same,TGI,[29],> 100 µM
same,TGI,[34],> 100 µM
same,TGI,[35],84.8 µM
same,TGI,[37],> 100 µM
same,TGI,[38],72.4 µM
same,TGI,[39],> 100 µM
same,TGI,[40],50.5 µM
same,TGI,[41],> 100 µM
same,TGI,[42],59.2 µM
same,TGI,[44],> 100 µM
same,TGI,[45],63.5 µM
same,TGI,[46],> 100 µM
same,TGI,[47],37.7 µM
same,TGI,[48],> 100 µM
same,TGI,[49],> 100 µM
same,TGI,[50],> 100 µM
same,TGI,[51],> 100 µM
same,TGI,[65],> 100 µM
same,TGI,[52],> 100 µM
same,TGI,[53],> 100 µM
same,TGI,[54],64.5 µM
same,TGI,[55],> 100 µM
same,TGI,[56],> 100 µM
same,TGI,[59],> 100 µM
same,TGI,[60],> 100 µM
same,TGI,[61],> 100 µM
same,TGI,[62],> 100 µM
same,TGI,[64],82.8 µM
